Test results: patent US20020019378A1, “COMPOUNDS” (priority 1997, published 2002)
Read-outs that look alike come from different tables or passages of the source. Values belong to the compound of their own block, whether it stands above or below them.

Experiments:
[1] = target: T1, Human Glucocorticoid Receptor (Homo sapiens, UniProt P04150); test: Functional in vitro glucocorticoid activity assay: Hela cells stably transfected with sPAP reporter gene under MMTV LTR promoter; format: cell-based; conditions: 72 hours incubation, values given as 'less than (about)', read-out: EC50 (sPAP transcription, glucocorticoid activity)
T1 construct: endogenous in cells; host or cells: HeLa cells stably transfected with an MMTV-LTR sPAP reporter
T1 sequence (P04150 1-777): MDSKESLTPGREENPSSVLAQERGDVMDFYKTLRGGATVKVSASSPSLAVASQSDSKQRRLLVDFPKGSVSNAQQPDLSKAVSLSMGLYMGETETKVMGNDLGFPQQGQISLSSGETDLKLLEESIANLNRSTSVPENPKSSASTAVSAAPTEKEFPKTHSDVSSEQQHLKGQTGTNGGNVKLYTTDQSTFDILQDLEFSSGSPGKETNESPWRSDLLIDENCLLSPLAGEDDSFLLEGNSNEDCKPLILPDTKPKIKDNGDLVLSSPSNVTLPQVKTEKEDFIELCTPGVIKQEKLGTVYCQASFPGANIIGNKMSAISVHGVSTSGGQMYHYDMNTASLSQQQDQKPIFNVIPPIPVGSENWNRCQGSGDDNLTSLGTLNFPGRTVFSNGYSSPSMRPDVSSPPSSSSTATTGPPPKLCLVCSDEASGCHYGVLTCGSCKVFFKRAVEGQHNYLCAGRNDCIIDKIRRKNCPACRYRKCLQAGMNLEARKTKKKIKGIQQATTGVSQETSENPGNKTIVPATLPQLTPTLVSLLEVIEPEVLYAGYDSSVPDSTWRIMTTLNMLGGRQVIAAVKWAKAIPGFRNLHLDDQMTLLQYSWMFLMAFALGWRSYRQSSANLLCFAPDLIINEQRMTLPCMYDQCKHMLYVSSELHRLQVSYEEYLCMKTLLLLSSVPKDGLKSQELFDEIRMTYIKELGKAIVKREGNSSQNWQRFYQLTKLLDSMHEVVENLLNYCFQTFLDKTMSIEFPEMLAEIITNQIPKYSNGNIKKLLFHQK
From the text: The functional assay used was a modification of the method described by T. S Berger et al, of J. of Steroid Biochem. Molec. Biol. 1992, 41 (3-8), 733-738, “Interaction of Glucocorticoid analogues with the Human Glucocorticoid Receptor”. Thus, Hela cells were stably transfected with a detectable reporter gene (secreted placental alkaline phosphatase, sPAP) under the control of a glucocorticoid response promoter (the LTR of the mouse mammary tumour virus, MMTV). Various concentrations of standard (dexamethasone) or compounds of the invention were incubated with transfected Hela cells for 72 hours. At the end of the incubation, substrate ([…]) for sPAP was added and the product measured by a spectrophotometric method. Increased absorbance reflected increased sPAP transcription and concentration-response lines were constructed such that EC50-values could be estimated.

human serum paraoxonase = human serum paraoxonase (Homo sapiens, UniProt P27169); test: Hydrolysis by human serum paraoxonase (enzymatic hydrolysis test method); format: in vitro ADME; conditions: 5% bovine serum albumin, 20 mM CaCl2, 37° C.
Experimental: The compounds herein have relatively short half-lives in blood in vitro. A test method for determining the half-life of the compounds under defined enzymatic hydrolysis conditions in vitro is now described. The test method is believed to provide a suitable indicator as to effects in vivo. In the test method, the hydrolysis of test compounds by a lactonase enzyme is monitored using RP HPLC with UV detection.
The ‘enzymatic hydrolysis test method’ is as follows: Incubations are carried out in 1 ml volumes in an aqueous medium containing 5% bovine serum albumin in the presence of 20 mM CaCl2. The solutions are preincubated at 37° C. for 5 minutes before the addition of the test compound (5 μl of a 5 mg/ml solution in DMSO) and then lactonase enzyme (10 μl to the 1 ml incubations). Control incubations containing no enzyme are also included. The enzymatic hydrolysis is monitored by removal of aliquots and quenching the reaction by the addition of an equal volume of acetonitrile. The samples are vortex mixed, then centrifuged and the supernatants are transferred to autosampler vials for HPLC analysis.
In a suitable HPLC procedure, aliquots (20 μl) of the supernatants are injected onto a Zorbax Rx C8 column (250×4.6mm; Hichrom). The column is maintained at 40° C. and eluted at a flow rate of 1.0 mL/min with a mobile phase of acetonitrile: 50 mM ammonium formate (65:35) adjusted to pH 4.2 with formic acid. Detection is by UV absorbance at 240 nm, and chromatographic peak areas for both parent and metabolite are measured.
In a preferred aspect, the half-life of each compound may be determined by a method in which peak areas are plotted against time on a log-linear scale, and the half lives determined by extrapolation or interpolation of a straight line joining two points.
The above described ‘enzymatic hydrolysis test method’ employs lactonase enzyme. Suitable forms of lactonase enzyme include human serum paraoxonase or a recombinant form thereof, or purified lactonase, obtained from human plasma as described hereinafter. Purification of human serum paraoxonase is described by C E Furlong et al, Chem.Biol.Interactions, Vol 87, p35-48, (1993) and recombinant human serum paraoxonase is described in International Patent application No. WO 96/01322
The susceptibility to hydrolysis by human serum paraoxonase of certain of the compounds of the Examples was assessed using the test protocol of the ‘enzymatic hydrolysis test method’ described herein.

[2] = test system: lactonase enzyme purified from human plasma; format: biochemical; conditions: for Restoration of lactonase activity in the presence of EDTA and EGTA: salt added at 100 mM
Experimental: The enzyme activity purified according to A. above was tested with classical inhibitors in order to establish to which enzyme family it belongs. Also, it was investigated whether a divalent cation was required as a co-factor, as disclosed in W. N. Fishbein et al, Journal of Biological Chemistry 1966, 241(21), 4835-4841.

[3] = Stability in human plasma test method; format: in vitro ADME; conditions: 37° C.
Experimental: The stability of various of the compounds of the Examples in human plasma was tested using the following ‘stability in human plasma’ test method: 500 μl aliquots of human plasma in screw capped polypropylene tubes were preincubated at 37° C. in a waterbath for 5 minutes. The plasma samples were then spiked with 5 μl of test compound (nominally 5 mg/ml in DMSO). Aliquots (100 μl ) were removed immediately and after 5 minutes and mixed with an equal volume of acetonitrile. The samples were centrifuged and the supernatants were transferred to autosampler vials for HPLC and half-life analysis.
In the HPLC procedure, aliquots (20 μl) of all the supernatants were injected onto a Zorbax Rx C8 column (250×4.6mm; Hichrom). The column was maintained at 40° C. and eluted at a flow rate of 1.0 mL/min with a mobile phase of acetonitrile: 50 mM ammonium formate (65:35) adjusted to pH 4.2 with formic acid. Detection was by UV absorbance at 240 nm, and chromatographic peak areas for both parent and metabolite were measured
To determine the half-life, for each compound peak areas were plotted against time on a log-linear scale, and the half lives determined by extrapolation or interpolation of a straight line joining two points.

[4] = Stability in human lung S9; format: in vitro ADME; conditions: human lung S9 diluted 1:1 with phosphate buffer pH 7.4, NADPH, 37° C.
Experimental: The stability of the compound of Examples 4 and 6 in a model human lung environment was assessed using the following test protocol: Incubations were carried out, at 37° C., in 500 μL volumes of human lung S9 diluted 1:1 with 10 mM phosphate buffer pH 7.4 to which was added 50 μl of 30 mg/ml (Aq) NADPH. The reactions were started by the addition of 5 μl of test compound (nominally 5 mg/ml solution in DMSO). Aliquots (100 μl) were removed immediately and after 1 hour and mixed with an equal volume of acetonitrile to stop the reaction. Samples were centrifuged and the supernatants were transferred to autosampler vials for HPLC analysis and half-life analysis using methods identical to those described in the ‘stability in human plasma’ test protocol described above. Control incubations containing no lung S9 were also included.

human serum paraoxonase, sequence (P27169 whole entry): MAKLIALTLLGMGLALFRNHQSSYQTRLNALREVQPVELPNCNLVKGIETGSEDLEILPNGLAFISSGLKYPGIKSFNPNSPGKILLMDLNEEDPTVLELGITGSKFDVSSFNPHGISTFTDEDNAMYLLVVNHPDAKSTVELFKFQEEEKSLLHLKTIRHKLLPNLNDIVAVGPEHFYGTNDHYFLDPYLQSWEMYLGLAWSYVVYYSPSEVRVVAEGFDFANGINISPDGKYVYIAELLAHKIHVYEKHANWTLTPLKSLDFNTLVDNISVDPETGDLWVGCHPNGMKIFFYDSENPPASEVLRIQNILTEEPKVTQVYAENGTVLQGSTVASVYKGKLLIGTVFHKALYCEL

- EC50 [1]: < 250 nM
Compound: CCC(=O)O[C@]1(C(=O)SCC2CCOC2=O)[C@H](C)C[C@H]2[C@@H]3C[C@H](F)C4=CC(=O)C=C[C@]4(C)[C@@]3(F)[C@@H](O)C[C@@]21C (single isomer, unassigned) [Example 2, 6α,9α-Difluoro-11β-hydroxy-16α-methyl-3-oxo-17α-propionyloxy-androsta-1,4-diene-17β-carbothioic acid S-(2-oxo-tetrahydro-furan-3-ylmethyl) ester]

Compound: CCC(=O)OC1(C(=O)SC2COC(=O)O2)C(C)CC2C3CC(F)C4=CC(=O)C=CC4(C)C3(F)C(O)CC21C (single isomer, unassigned) [Example 7 isomer A, 6α,9α-Difluoro-11β-hydroxy-16α-methyl-3-oxo-17α-propionyloxy-androsta-1,4-diene-17β-carbothioic acid S-(2-oxo-1,3-dioxolan-4-yl) ester]
- EC50 [1]: < 500 nM
- Hydrolysis by human serum paraoxonase (human serum paraoxonase): hydrolysed

Compound: CCC(=O)OC1(C(=O)OC2COC(=O)O2)C(C)CC2C3CC(F)C4=CC(=O)C=CC4(C)C3(F)C(O)CC21C (single isomer, unassigned; isomer a) [Example 9 isomer A, 6α,9α-Difluoro-11β-hydroxy-16α-methyl-3-oxo-17α-propionyloxy-androsta-1,4-diene-17β-carboxylic acid O-(2-oxo-1,3-dioxolan-4-yl) ester]
- Hydrolysis by human serum paraoxonase (human serum paraoxonase): hydrolysed

Compound: [Ca+2].[Cl-].[Cl-] [CaCl2]
- Restoration of lactonase activity in the presence of EDTA and EGTA [2]: fully restored

Compound: O=C(O)CN(CCN(CC(=O)O)CC(=O)O)CC(=O)O [EDTA]
- Inhibition of lactonase activity [2]: totally inhibited

Compound: O=C(O)CN(CCOCCOCCN(CC(=O)O)CC(=O)O)CC(=O)O [EGTA]
- Inhibition of lactonase activity ([2]; inhibitor at 1 mM): totally inhibited

- EC50 [1]: < 250 nM
Compound: C[C@@H]1C[C@H]2[C@@H]3C[C@H](F)C4=CC(=O)C=C[C@]4(C)[C@@]3(F)[C@@H](O)C[C@]2(C)[C@]12OC(=O)SC2=O [Example 1, 6α,9α-Difluoro-11β-hydroxy-16α-methyl-17-spiro[androsta-1,4-diene-17,5′-[1,3]oxathiolane]-2′,3,4′-trione]

Compound: CSC(=O)[C@@]1(OC(=O)CSC2COC(=O)C2)[C@H](C)C[C@H]2[C@@H]3C[C@H](F)C4=CC(=O)C=C[C@]4(C)[C@@]3(F)[C@@H](O)C[C@@]21C (stereo partly drawn) [Example 3, 6α,9α-Difluoro-11β-hydroxy-16α-methyl-3-oxo-17α-(2-oxo-tetrahydro-furan-4-ylsulfanyl-acetoxy)-androsta-1,4-diene-17β-carbothioic acid methyl ester]
- EC50 [1]: < 250 nM
- half-life at 49.5 µg/mL [3]: < 10 min
- Hydrolysis by human serum paraoxonase (human serum paraoxonase): hydrolysed

- EC50 [1]: < 250 nM
Compound: C[C@]12C=CC(=O)C=C1CC[C@H]1[C@@H]3C[C@H]4CC(=O)O[C@@]4(C(=O)CO)[C@@]3(C)C[C@H](O)[C@@]12F [Example 5, 9α-Fluoro-11β,17α,21-trihydroxy-3,20-dioxo-pregna-1,4-diene-16α-acetic acid γ-lactone]

- half-life at 49.5 µg/mL [3]: < 10 min
- half-life at 45 µg/mL [4]: > 60 min
Compound: Nc1c(Cl)cc(C(O)CNCCCSC2CCOC2=O)cc1Cl.O=C(O)C(F)(F)F (stereo not shown) [Example 6, 3-[3-[2-(4-Amino-3,5-dichlorophenyl)-2-hydroxyethylamino]propylsulfanyl]-dihydro-furan-2-one trifluoroacetate]

Compound: CCC(=O)O[C@]1(C(=O)SCc2oc(=O)oc2C)[C@H](C)C[C@H]2[C@@H]3C[C@H](F)C4=CC(=O)C=C[C@]4(C)[C@@]3(F)[C@@H](O)C[C@@]21C [Example 10, 6α,9α-Difluoro-11β-hydroxy-16α-methyl-3-oxo-17α-propionyloxy-androsta-1,4-diene-17β-carbothioic acid S-(5-methyl-2-oxo-1,3-dioxol-4-ylmethyl) ester]
- EC50 [1]: < 500 nM
- half-life at 49.5 µg/mL [3]: < 10 min

Compound: CCC(=O)OC1(C(=O)OCc2oc(=O)oc2C)C(C)CC2C3CC(F)C4=CC(=O)C=CC4(C)C3(F)C(O)CC21C (stereo not drawn) [Example 12, 6α,9α-Difluoro-11β-hydroxy-16α-methyl-3-oxo-17α-propionyloxy-androsta-1,4-diene-17β-carboxylic acid O-(5-methyl-2-oxo-1,3-dioxol-4-ylmethyl) ester]
- Hydrolysis by human serum paraoxonase (human serum paraoxonase): hydrolysed

Compound: [Cl-].[Cl-].[Mg+2] [MgCl2]
- Restoration of lactonase activity in the presence of EDTA and EGTA [2]: not restored

Compound: CNC(=O)Oc1ccc2c(c1)[C@]1(C)CCN(C)[C@@H]1N2C [eserine]
- Inhibition of lactonase activity ([2]; inhibitor at 50 mM): not inhibited

Compound: O=C(O)c1cc[c]([Hg][Cl])cc1 [p-chloromercuribenzoate (PCMB), p-chloromercuribenzoate]
- Inhibition of lactonase activity ([2]; inhibitor at 1 mM): slightly inhibited

Compound: O=S(=O)(F)Cc1ccccc1 [phenylmethylsulphonyl fluoride (PMSF), phenylmethylsulphonyl fluoride]
- Inhibition of lactonase activity ([2]; inhibitor at 10 mM): not inhibited

Compound: O=S(=O)([O-])[O-].[Zn+2] [zinc sulphate]
- Inhibition of lactonase activity ([2]; inhibitor at 1 mM): totally inhibited
